Measured values taken from ChEMBL document CHEMBL1201862, “PubChem BioAssay data set” (2004).
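Assay format: 96-well plates, 48-hour exposure. Abbreviation: GI50, concentration required for 50% inhibition of growth.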 The source made the active and inactive calls. Rule as the data show it: active = GI50 up to about 1.1 µM and inactive = higher.

Columns and labels:
Assay in all cases: NCI anticancer screen, dose series, 48 h
CAKI-1 = test system: CAKI-1
HCT-116 = test system: HCT-116
HT-29 = test system: HT-29
K562 = test system: K562
KM12 = test system: KM12
NCI-H226 = test system: NCI-H226
NCI-H522 = test system: NCI-H522
OVCAR-8 = test system: OVCAR-8
SF-268 = test system: SF-268
SK-MEL-2 = test system: SK-MEL-2
SK-MEL-5 = test system: SK-MEL-5
SN12C = test system: SN12C
SNB-75 = test system: SNB-75
UACC-257 = test system: UACC-257
UO-31 = test system: UO-31
A498 = test system: A498

Measured: GI50

COc1cc2c(cc1OC)C(Cc1cc(Br)c(OC)c(OC)c1)=[N+](C)CC2
inactive: CAKI-1 > 100 µM | HCT-116 > 100 µM | HT-29 33.2 µM | K562 18.8 µM | KM12 > 100 µM | NCI-H226 31.6 µM | NCI-H522 22.8 µM | OVCAR-8 27 µM | SF-268 > 100 µM | SK-MEL-2 > 100 µM | SK-MEL-5 19.2 µM | SN12C 87.3 µM | SNB-75 94.4 µM | UACC-257 11.1 µM | UO-31 > 100 µM

Cc1ccc(NC(=O)c2cc3cc(/N=N/c4ccccc4C(=O)O)ccc3oc2=O)cc1
inactive: HCT-116 28.4 µM | HT-29 38.5 µM | K562 39.2 µM | KM12 44.5 µM | NCI-H226 39.4 µM | NCI-H522 30.1 µM | OVCAR-8 58.7 µM | SK-MEL-5 28.5 µM | SN12C 54.6 µM | SNB-75 45.9 µM | UACC-257 20.3 µM | UO-31 30.1 µM

CCCCCCCCCCCCCCCC(=O)OCC1OC(n2cc(F)c(=O)[nH]c2=O)C(N)C(O)C1O (centres undefined)
inactive: A498 25.9 µM | CAKI-1 21 µM | HCT-116 20 µM | HT-29 20.6 µM | K562 16.5 µM | KM12 18.6 µM | NCI-H226 17.5 µM | NCI-H522 17.8 µM | OVCAR-8 20.5 µM | SF-268 19.5 µM | SK-MEL-5 18.1 µM | SN12C 18.2 µM | SNB-75 19.2 µM | UACC-257 20.2 µM | UO-31 15.6 µM

O=c1[nH]c(-c2ccccc2)nc2ccc(Cl)cc12
inactive: CAKI-1 20.9 µM | HCT-116 > 100 µM | HT-29 36.8 µM | K562 26.9 µM | KM12 68.5 µM | NCI-H226 > 100 µM | NCI-H522 20.5 µM | OVCAR-8 43.8 µM | SF-268 28 µM | SK-MEL-2 47 µM | SN12C 41 µM | UACC-257 42.4 µM | UO-31 48.1 µM

Cc1nc(N2N=C(c3ccc(Cl)cc3)CCC2=O)sc1[N+](=O)[O-]
inactive: CAKI-1 > 100 µM | HCT-116 > 100 µM | HT-29 > 100 µM | K562 > 100 µM | KM12 > 100 µM | NCI-H226 > 100 µM | NCI-H522 > 100 µM | OVCAR-8 > 100 µM | SF-268 > 100 µM | SK-MEL-2 > 100 µM | SK-MEL-5 > 100 µM | SN12C > 100 µM | SNB-75 > 100 µM | UACC-257 > 100 µM | UO-31 > 100 µM

Brc1ccccc1C1SCc2nc3ccccc3n21 (centres undefined)
inactive: CAKI-1 20.7 µM | HCT-116 8.07 µM | HT-29 23.5 µM | K562 7.01 µM | KM12 15.9 µM | NCI-H226 17.1 µM | NCI-H522 13.2 µM | OVCAR-8 23.6 µM | SF-268 20 µM | SK-MEL-2 15.5 µM | SK-MEL-5 6.34 µM | SN12C 12.8 µM | SNB-75 21.7 µM | UO-31 10.4 µM

COCCCNC(=O)C1C(=O)N(CCCOC)C(=O)/C1=N\N (centres undefined)
inactive: A498 > 100 µM | HCT-116 > 100 µM | HT-29 > 100 µM | K562 > 100 µM | KM12 > 100 µM | NCI-H522 > 100 µM | OVCAR-8 > 100 µM | SF-268 > 100 µM | SK-MEL-2 > 100 µM | SK-MEL-5 > 100 µM | SN12C > 100 µM | SNB-75 38.3 µM | UACC-257 > 100 µM | UO-31 > 100 µM

COc1cc(-c2nccc3cc(OC)c(OC)cc23)ccc1O
inactive: CAKI-1 21.3 µM | HCT-116 49 µM | HT-29 30.8 µM | K562 40.8 µM | KM12 48.3 µM | NCI-H226 > 100 µM | NCI-H522 35.8 µM | OVCAR-8 44.1 µM | SK-MEL-2 > 100 µM | SK-MEL-5 32.6 µM | SN12C 48.2 µM | SNB-75 75.7 µM | UACC-257 69.2 µM | UO-31 > 100 µM

N#Cc1ccccc1/C=N/O
inactive: A498 > 100 µM | CAKI-1 > 100 µM | HCT-116 > 44.2 µM | HT-29 > 75.3 µM | K562 > 44.7 µM | KM12 > 100 µM | NCI-H226 > 100 µM | NCI-H522 > 100 µM | OVCAR-8 > 100 µM | SF-268 > 100 µM | SK-MEL-5 > 100 µM | SN12C > 100 µM | SNB-75 > 69.5 µM | UACC-257 > 100 µM | UO-31 > 100 µM

NCCCNCc1c2ccccc2c(CNCCCN)c2ccccc12
inactive: A498 23.1 µM | CAKI-1 30.5 µM | HCT-116 5.35 µM | HT-29 18.2 µM | K562 13.6 µM | KM12 19.2 µM | NCI-H522 5.96 µM | OVCAR-8 14.6 µM | SF-268 5.12 µM | SK-MEL-2 14.9 µM | SK-MEL-5 27.1 µM | SN12C 3.66 µM | SNB-75 19.8 µM | UACC-257 21.2 µM | UO-31 37.8 µM

CC(O)C(C(=O)O)N(CC1(O)OCC(O)C(O)C1O)N=O (centres undefined)
inactive: A498 > 100 µM | HCT-116 > 100 µM | HT-29 > 100 µM | K562 > 100 µM | KM12 > 100 µM | NCI-H522 > 100 µM | OVCAR-8 > 100 µM | SK-MEL-2 > 100 µM | SNB-75 > 100 µM | UACC-257 > 100 µM | UO-31 > 100 µM

OCC(O)C(O)C(O)C(O)c1nnn[nH]1 (centres undefined)
inactive: CAKI-1 > 100 µM | HCT-116 > 100 µM | HT-29 > 100 µM | K562 > 100 µM | KM12 > 100 µM | NCI-H226 > 100 µM | NCI-H522 > 100 µM | OVCAR-8 > 100 µM | SF-268 > 100 µM | SK-MEL-2 > 100 µM | SK-MEL-5 78.9 µM | SN12C > 100 µM | UO-31 > 100 µM

[O-][Cl+3]([O-])([O-])[O-].c1ccc(C[P+]2(c3ccccc3)CCCCC2)cc1
inactive: A498 > 100 µM | HCT-116 23.7 µM | HT-29 72.8 µM | K562 > 100 µM | KM12 > 100 µM | NCI-H226 > 100 µM | NCI-H522 34.5 µM | OVCAR-8 > 100 µM | SK-MEL-2 95.5 µM | SK-MEL-5 28.7 µM | SN12C > 100 µM | SNB-75 88.9 µM | UACC-257 34.4 µM | UO-31 > 100 µM

COc1cc(Br)c(/C=N\c2cccc3ccc(OS(=O)(=O)c4ccc([N+](=O)[O-])cc4)cc23)cc1OC
inactive: A498 > 100 µM | CAKI-1 6.19 µM | HCT-116 > 100 µM | HT-29 > 100 µM | KM12 59.4 µM | NCI-H226 > 100 µM | NCI-H522 48 µM | OVCAR-8 > 100 µM | SF-268 > 100 µM | SK-MEL-2 > 100 µM | SK-MEL-5 13.8 µM | SN12C > 100 µM | UACC-257 > 100 µM | UO-31 7.33 µM
